Peptide text beside a SMILES is read from it. * marks the point of attachment. 5FAM = O=C1OC2(c3ccc(O)cc3Oc3cc(O)ccc32)c2ccc(C(=O)*)cc21; Ahx = NCCCCCC(=O)O
Tested on: orthotopic WT-GBM-bearing nude mice
Assay: Biodistribution of monomeric FAM-labeled peptides in WT-GBM mice (anti-FAM DAB immunohistochemistry)
Assay type: in vivo
Settings: 200 µg i.v., 1 h circulation, perfused, anti-FAM DAB staining, qualitative, n = 3, Fig. 6d
Text: Whereas polyvalent targeting systems, such as bacteriophages and AgNPs used in previous sections, exploit multivalent interactions to enhance specificity and binding efficiency, monovalent targeting systems rely on single ligand-receptor interactions for targeted drug delivery. The choice between these two approaches depends on affinity of the targeting ligand and the pharmacokinetic properties of the therapeutic agent. We next studied in vivo biodistribution of monomeric FAM-labeled SKLG, PL3, and scrambled PL3 control (scrPL3) peptides in WT-GBM tumor-bearing mice. The mice were dosed with FAM-labeled peptides followed by perfusion, tissue collection, sectioning, and detection of the peptides using immunohistochemistry with anti-FAM antibodies.
Fig. 6 Biodistribution of monomeric FAM-labeled peptides in WT-GBM mice. Orthotopic GBM-bearing nude mice were i.v. injected with FAM-labeled scrambled PL3 control (scrPL3), PL3 or SKLG peptides. After 1 h of circulation the mice were anesthetized and perfused. Organs were harvested, sectioned, and parallel sections were immunostained with hematoxylin & eosin (H&E) staining or anti-FAM 3, 3'-diaminobenzidine (DAB) staining. (a) H&E of WT-GBM tumor-bearing brain tissue sections. (b) DAB staining of WT-GBM tumor region in the brain. (c) H&E staining of lung tissue sections. (d) DAB staining of lung tissue sections. […]

## CC(C)C[C@H](NC(=O)[C@H](CCCNC(=N)N)NC(=O)CNC(=O)[C@H](CCCNC(=N)N)NC(=O)CNC(=O)[C@H](C)NC(=O)[C@H](CCCNC(=N)N)NC(=O)CCCCCNC(=O)c1ccc2c(c1)C(=O)OC21c2ccc(O)cc2Oc2cc(O)ccc21)C(=O)N[C@H](C(=O)O)C(C)C [scrPL3] ({5FAM-Ahx}-RAGRGRLV-OH)
  accumulation of FAM-labeled peptide in pulmonary tissue: only a background signal

Source: PMC11384632, “Protease-activated CendR peptides targeting tenascin-C: mitigating off-target tissue accumulation” (Drug Delivery and Translational Research, 2024)
